Test results taken from US4442031A, “Immunopotentiating peptides” (Hoffmann-La Roche Inc., priority 1983, dated 1984).
Where no end group is shown, it is not given here.

How the values were obtained:
Type in all cases: in vivo
P388 leukemia = test: Protective activity against P388 leukemia growth in 5-FU immunosuppressed mice; conditions: for Mean Survival days (days ± S.D.): CDF1 mice, 5-FU +, P388 +, 5-FU + saline 4.1
Experimental: The treatment with cytostatic agents often decreases immunocompetence and consequently increases incidence of metastasis of tumor in cancer patients. […] In the experiment shown in Table 10, male CDF1 mice (6 week old) were treated daily for 8 times with or without 5-FU (28 mg/kg/day ip.) and then transplanted subcutaneously with P388 leukemic cells (3×10^5) into footpad 24 hours later. When pretreated with 5-FU, mice died very quickly at 4 days, while normal mice survived about 23 days after the transplant. […] Thymosin α1 and compound A may improve the immunodefense system against metastatic tumor growth in cancer patients who are receiving immunosuppressive chemotherapy. In combination with thymosin α1 or compound A, more extensive cancer chemotherapy for a longer duration may be possible.
^(1) CDF1 mice were pretreated daily for 8 times from Day 8 to
with 5FU (28 mg/kg/day, ip.).
^(2) Thymosin α1 or Compound A were administered daily for
14 times from Day 8 to 5 by ip. route.
^(3) P388 leukemic cells (3 × 10^5) were inoculated into
^(4) Survival days after the inoculation of the leukemic cells.

[1] = test system: delayed-type hypersensitivity (DTH); test: Restoration of delayed-type hypersensitivity (DTH) decreased by 5-FU in BDF1 mice; conditions: for DTH response %: % of control
Experimental: A poor prognosis is often observed in cancer patients with impaired immune response. Impaired immune response can be caused by the cancer itself, by chemotherapeutic agents, or by radiotherapy. Thus, therapeutic agents which restore impaired immune response in cancer patients are expected to play an important role in combination therapy. The restoration activity of the compounds of the invention on impaired cell-mediated immunity was determined by measuring the enhancement of delayed-type hypersensitivity (DTH), which was decreased to a great extent in mice treated with 5-fluorouracil (5-FU).
Female BDF1 mice (20-22 g, 11-12 weeks old) received (i.p. or p.o.) the compound to be tested on consecutive days one day before, concurrently with and 1 and 2 days after the 5-FU treatment. For DTH measurement, 10^8 chicken red blood cells (CRBC) were injected i.p. (or s.c. into the left hind footpad) and challenged s.c. into the right hind footpad at 3 and 7 days after the 5-FU treatment, respectively. Restoration activity was calculated by the following formula from the DTH response observed in the control group, 5-FU treated group treatment and the Test group treated both with 5-FU and the compound of the invention. Restoration activity was calculated by the formula: [formula]

[2] = test system: Listeria monocytogenes EGD; test: Growth of Listeria monocytogenes in liver of P388 tumor-bearing mice; conditions: Tumor-bearing CDF1 mice, i.p., seven times before infection, 3 days after infection, control 7.1
Excerpt: The immunocompetence of tumor-bearing mice is known to be frequently deficient. This is illustrated by the fact that Listeria monocytogenes EGD grew considerably in tumor-bearing mice as compared to normal mice (see Table 9). Male CDF1 mice (6 weeks old) transplanted with P388 leukemia (3×10^5 cells, footpad) were infected with Listeria monocytogenes (2×10^3 cells, iv.) 7 days after the transplant. Three days thereafter the number of the bacteria grown in liver was counted.

[3] = test system: Listeria monocytogenes EGD; test: Protection against Listeria monocytogenes infection in 5-FU immunosuppressed mice; conditions: Table 8, i.p., 5-FU immunosuppressed mice, control 2/10
Experimental: (§1) Normal mice (female ddY mice, 6 weeks old) were highly tolerant to infection with Candida albicans ATCC 10231 at relatively low dose (1-2×10^5 cells, iv.). However, when pretreated daily for ten times with 5-FU (25 mg/kg/day, ip.), the mice were susceptible to infection as shown in Table 6. […] Compound A was also shown to be active against infection with Pseudomonas aeruginosa 5E81-1 and Listeria monocytogenes EGD in the immunosuppressed mice (see Tables 7 and 8).

[4] = test system: Pseudomonas aeruginosa 5E81-1; test: Protection against Pseudomonas aeruginosa infection in 5-FU immunosuppressed mice; conditions: Table 7, i.p., 5-FU immunosuppressed mice, control 0/30
Experimental: as §1

[5] = test system: Candida albicans ATCC 10231; test: Protective activity against Candida albicans infection in 5-FU immunosuppressed mice; conditions: for Survivors Day 8 / Survivors Day 15: ddY mice
Experimental: In a series of examples, the compounds of formula I were tested for protective activity against opportunistic infections in immunosuppressed mice. Female ddY mice (6 weeks old) weighing about 26 g were pretreated daily for ten days with 5-fluorouracil (5-FU) (25 mg/kg/day, i.p.) and with thymosin α1 or with compounds of formula I (i.p.) at varying dosages. The mice were then infected with Candida albicans ATCC 10231 (1×10^5 cells or more) at 24 hour after the last treatment. One control group was administered 5-FU and saline solution and a second control group received neither 5-FU nor compound of formula I prior to infection with Candida albicans. The number of animals surviving eight days after infection with Candida albicans and 15 days after infection with Candida albicans is presented in the table below.
as §1

[6] = Table 2, 5-FU plus 0.5 μg/kg/day, i.p.
[7] = Table 2, 5-FU plus 5.0 μg/kg/day, i.p.
[8] = Table 3, first experiment, 5-FU plus 5.0 μg/kg/day, i.p.
[9] = Table 4, 5-FU plus 5.0 μg/kg/day i.p.
[10] = Example 8, 40.0 μg/kg i.p. daily for ten days with 5-FU
[11] = Example 10, 0.4 μg/kg i.p. daily for ten days with 5-FU
[12] = Example 10, 4.0 μg/kg i.p. daily for ten days with 5-FU
[13] = Example 10, 40.0 μg/kg i.p. daily for ten days with 5-FU
[14] = Example 11, 4.0 μg/kg i.p. daily for ten days with 5-FU
[15] = Example 11, 40.0 μg/kg i.p. daily for ten days with 5-FU
[16] = Example 11, 400.0 μg/kg i.p. daily for ten days with 5-FU

Substance: thymosin α1 (SDAAVDTSSEITTKDLKEKKEVVEEAEN; ends and bridges not checked; UniProt P01252 2-29, looked up) [peptide isolated from bovine thymus, stimulates maturation, differentiation and function of T cells; U.S. Pat. No. 4,079,127, reference compound]
- Mean Survival days (days ± S.D.) (P388 leukemia; 4 μg/kg/day ip. 14 times): 17.6 ± 8.2 days
- Mean Survival days (days ± S.D.) (P388 leukemia; 40 μg/kg/day ip. 14 times): 20.7 ± 2.8 days
- survival days (in words) (P388 leukemia; daily treatment in addition to 5-FU, 8 times before and 6 times after the transplant): increased the survival days to the level similar to that obtained in normal mice
- Restoration Activity(%) [1, 6]: 1.3%
- DTH response % [1, 6]: 56.0%
- DTH response av. ± S.E. (0.1 mm) ([1]; Table 2, 5-FU plus 0.5 μg/kg/day, i.p., control 10.3, 5-FU alone 5.7): 5.8 ± 1.1 0.1 mm
- Restoration Activity(%) [1, 7]: 50.3%
- DTH response % [1, 7]: 77.8%
- DTH response av. ± S.E. (0.1 mm) ([1]; Table 2, 5-FU plus 5.0 μg/kg/day, i.p., control 10.3, 5-FU alone 5.7): 8.0 ± 1.2 0.1 mm
- DTH response av. ± S.E. (0.1 mm) ([1]; Table 3, first experiment (control 8.5, 5-FU alone 4.8), 5-FU plus 5.0 μg/kg/day, i.p.): 7.3 ± 0.8 0.1 mm
- Restoration Activity(%) [1, 8]: 68.7%
- DTH response % [1, 8]: 86.3%
- DTH response av. ± S.E. (0.1 mm) ([1]; Table 4 (control 7.7, 5-FU alone 5.6), 5-FU plus 0.5 μg/kg/day i.p.): 5.4 ± 1.2 0.1 mm
- DTH response av. ± S.E. (0.1 mm) ([1]; Table 4 (control 7.7, 5-FU alone 5.6), 5-FU plus 5.0 μg/kg/day i.p.): 7.3 ± 0.8 0.1 mm
- DTH response % ([1]; Table 4, 5-FU plus 0.5 μg/kg/day i.p.): 70.1%
- Restoration Activity(%) [1, 9]: 81.0%
- DTH response % [1, 9]: 94.8%
- Growth of Bacteria (log10 /liver) ([2]; 4 μg/kg/day): 5.0 log10 /liver
- Growth of Bacteria (log10 /liver) ([2]; 40 μg/kg/day): 5.3 log10 /liver
- Survivors at Day 15 after infection ([3]; 4 μg/kg/day): 7/10
- Survivors at Day 15 after infection ([3]; 40 μg/kg/day): 5/10
- Survivors at Day 15 after infection ([4]; 0.4 μg/kg/day): 7/20
- Survivors at Day 15 after infection ([4]; 4 μg/kg/day): 12/30
- Survivors at Day 15 after infection ([4]; 40 μg/kg/day): 16/30
- Survivors Day 8 [5, 10]: 5/7
- Survivors Day 15 [5, 10]: 5/7
- Survivors Day 8 ([5]; Example 9, 40.0 μg/kg i.p. daily for ten days with 5-FU): 4/7
- Survivors Day 8 [5, 11]: 3/10
- Survivors Day 15 [5, 11]: 3/10
- Survivors Day 8 [5, 12]: 6/10
- Survivors Day 15 [5, 12]: 5/10
- Survivors Day 8 [5, 13]: 9/10
- Survivors Day 15 [5, 13]: 8/10
- Survivors Day 8 [5, 14]: 3/10
- Survivors Day 15 [5, 14]: 3/10
- Survivors Day 8 [5, 15]: 6/10
- Survivors Day 15 [5, 15]: 5/10
- Survivors Day 8 [5, 16]: 8/10
- Survivors Day 15 [5, 16]: 8/10
- Survivors at Day 8 after infection ([5]; Table 6, 40 μg/kg/day, i.p., ten times with 5-FU, control 1/7): 4/7
